From patent publication US20150025002A1, “PEPTIDES AND PEPTIDE DERIVATIVES BASED ON XENIN” (UNIVERSITY OF ULSTER, priority 2012, published 2015)
Square brackets hold non-standard residues; d marks the D form. Ends that are not written are not given here.

What was measured:
BRIN-BD11 cells = assay: In vitro insulin secretion in BRIN-BD11 cells (radioimmunoassay); format: cell-based, rat; details: 5.6 mM glucose; for insulin secretion compared to glucose alone, FIG. 1b experiment: P<0.05 to P<0.001
Procedure: BRIN-BD11 cells (ECACC accession number 100330033) were cultured in RPMI 1640 tissue culture medium containing 10% (v/v) foetal calf serum, 1% (v/v) antibiotics (100 U/ml of penicillin and 0.1 mg/ml of streptomycin). BRIN-BD11 cells were originally derived by means of electrofusion of a New England Deaconess Hospital (NEDH) rat pancreatic beta-cell line with an RINm5F cell line in order to produce an immortal, glucose sensitive, insulin secreting cell line (McClenaghan etal., Diabetes. 1996 August; 45(8):1132-40). All cells were maintained in sterile tissue culture flasks (Corning Glass Works, Corning, N.Y., USA) at 37° C. in an atmosphere of 5% CO2 and 95% air, using an LEEC incubator (Laboratory Technical Engineering, Nottingham, UK).
BRIN-BD11 cells were seeded into 24-well plates at a density of 1×10^5 cells and allowed to attach to the wells overnight in an incubator. Before acute studies of insulin were carried out, the cells underwent a 40 min preincubation period at 37° C. with 1.0 ml of Krebs Ringer bicarbonate buffer (115 mM NaCl, 4.7 mM KCl, 1.28 mM CaCl2.2H2O, 1.2 mM KH2PO4, 1.2 mM MgSO4.7H2O, 10 mM NaHCO3, 5 g/l bovine serum albumin (BSA), pH 7.4) supplemented with 1.1 mM glucose. […] The incubations were performed for 20 min at 37° C., after which the buffer solution was removed and 2×200 μl aliquots stored at −20° C. until measurement of insulin levels by radioimmunoassay (RIA).

high-fat fed mice = assay: Persistent glucose-lowering in high-fat fed mice, peptide given 4 hours before glucose load; format: in vivo; details: 25 nmol/kg i.p. 4 hours before glucose load
Procedure: (§1) NIH Swiss male mice (6 weeks old) were housed in an air conditioned room 22±2° C. with a 12 h light: 12 h dark cycle. Animals were maintained on a high fat diet 16 weeks prior to commencement and throughout the study. Drinking water and high fat diet was freely available. All animal studies were performed in accordance with the UK Animals (Scientific Procedures) Act 1986 under project licences held by the inventor.
Freely fed animals were divided into weight-matched groups (n=8) and administered, by intraperitoneal injection, saline vehicle (0.9% NaCl) or saline in combination with each peptide (25 nmol/kg body weight). Food was then immediately withdrawn and 4 hours later all mice received an intraperitoneal injection of glucose alone (18 mmol/kg body weight). Blood samples were collected immediately prior to (t=0) and 15, 30 and 60 min post glucose injection. Whole blood was used to measure glucose values using an Acensia CONTOUR Microfill Blood Glucose Meter and Acensia MICROFILL test strips (Bayer Healthcare, UK).

high fat fed mice = assay: Acute glucose homeostasis and insulin secretion in high fat fed mice; format: in vivo; details: 25 nmol/kg i.p. with glucose 18 mmol/kg
Procedure: as §1
Freely fed animals were divided into weight-matched groups (n=8) and administered, by intraperitoneal injection, glucose alone (18 mmol/kg body weight) or glucose in combination with each peptide (25 nmol/kg body weight). Blood samples were collected immediately prior to (t=0) and 15, 30 and 60 min post-injection. Whole blood was used to measure glucose values using an Acensia CONTOUR Microfill Blood Glucose Meter and Acensia MICROFILL test strips (Bayer Healthcare, UK). Blood samples for measurement of insulin was collected into fluorine/heparin microcentrifuge tubes (Sarstedt, Numbercht, Germany) at times indicated above and immediately centrifuged using a Beckman microcentrifuge (Beckman Instruments, UK) for 5 min at 13,000 g. Plasma was then aliquoted and stored at −20° C. prior to insulin determination by RIA.

[1] = target: Dipeptidyl peptidase-4 (DPP-4) (Homo sapiens, UniProt P27487); details: pH 7.8
Procedure: Dipeptidyl peptidase-4 (DPP-4) was used to determine the degradation properties and identify any degradation products. Each peptide (30 μg) was incubated at 37° C. DPP-4 with 455 μl 50 mM triethanolamine-HCl (TEA) pH 7.8 buffer, and the reaction was stopped with 5 μl 10% (v/v) TFA. Time 0, 15, 30, 60, 120, 240 and 480 minutes degradation profiles were measured and HPLC was carried out to identify the degradation pattern and degradation products.

[2] = Incubation in the presence of murine plasma (MALDI-ToF MS, ESI MS); details: 37° C., 50 mM TEA-HCl pH 7.8, up to 24 hours
Procedure: MALDI-ToF Mass Spectrometry: Following solid phase extraction, samples for each degradation time-point were subsequently mixed with α-cyano-4-hydroxycinnamic acid and applied to a Voyager-DE BioSpectrometry Workstation and mass-to-charge (m/z) ratio verses peak intensity recorded.
ESI Mass Spectrometry: Samples for each degradation time-point were applied to the ESI Ion-trap MS/MS utilizing a mass-to-charge range (m/z) of 0-2000. Resulting mass spectra were analyzed with the turbo sequest algorithm and degradation fragments sequenced against a fasta database containing the native xenin sequence.

Sequence of Dipeptidyl peptidase-4 (DPP-4) (P27487 whole entry, species assumed): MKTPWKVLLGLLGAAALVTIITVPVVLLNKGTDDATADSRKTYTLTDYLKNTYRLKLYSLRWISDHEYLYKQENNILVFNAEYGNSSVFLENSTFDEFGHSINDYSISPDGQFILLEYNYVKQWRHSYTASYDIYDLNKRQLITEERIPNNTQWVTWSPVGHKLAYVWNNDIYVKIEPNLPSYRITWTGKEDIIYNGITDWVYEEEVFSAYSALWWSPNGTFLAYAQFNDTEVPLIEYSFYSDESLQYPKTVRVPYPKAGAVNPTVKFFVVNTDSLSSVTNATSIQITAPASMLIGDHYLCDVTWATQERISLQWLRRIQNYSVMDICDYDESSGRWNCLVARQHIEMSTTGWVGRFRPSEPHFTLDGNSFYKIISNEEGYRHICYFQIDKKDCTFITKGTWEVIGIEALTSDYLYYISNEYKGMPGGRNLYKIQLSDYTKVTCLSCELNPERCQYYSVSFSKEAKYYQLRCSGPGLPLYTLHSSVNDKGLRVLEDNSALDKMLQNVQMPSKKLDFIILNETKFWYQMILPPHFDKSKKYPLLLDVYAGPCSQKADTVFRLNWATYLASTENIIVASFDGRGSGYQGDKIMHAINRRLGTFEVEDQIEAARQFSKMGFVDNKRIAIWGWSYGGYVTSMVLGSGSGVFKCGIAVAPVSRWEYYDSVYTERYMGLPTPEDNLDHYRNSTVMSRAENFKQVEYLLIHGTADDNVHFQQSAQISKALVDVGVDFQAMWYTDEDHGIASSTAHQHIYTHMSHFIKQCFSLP

Row | Substance | insulin secretion compared to glucose alone, FIG. 1b experiment (BRIN-BD11 cells) | effect on plasma glucose when administered 4 hours previously (high-fat fed mice) | insulin secretion, peptide alone (BRIN-BD11 cells; 20 min, 10^-12 to 10^-6 M, FIG. 1a/1e) | insulin production compared to glucose alone, concentrations with significant effect (BRIN-BD11 cells; peptide alone, FIG. 1a/1e) | plasma glucose AUC vs glucose alone (high fat fed mice; 0-60 min) | plasma glucose excursion vs glucose alone (high fat fed mice; 0-60 min, FIG. 2a) | plasma insulin response vs glucose alone (high fat fed mice; FIG. 2b/2f) | degradation by DPP-IV [1] | degradation in murine plasma [2]
1 | (D-Ala^2)GIP: YAEGTFISDYSIAMDKIHQQDFVNWLLAQKGKKNDWKHNITQ, alanine at position 2 is a D-amino acid (Y[dA]EGTFISDYSIAMDKIHQQDFVNWLLAQKGKKNDWKHNITQ) | significantly stimulated insulin secretion in a concentration-dependent manner | – | – | – | – | – | – | – | –
2 | MLTKFETKSARVKGLSFHPKRPWIL-OH [native xenin] | significantly stimulated insulin secretion in a concentration-dependent manner | did not elicit any significant effects on plasma glucose | stimulated insulin secretion in a concentration-dependent manner | significantly enhanced insulin production at concentrations of 10^−8 and 10^−6 M | failed to reach overall significance | not significantly different to animals receiving glucose alone | not significantly different to animals receiving glucose alone | completely resistant to degradation by DPP-IV | –
3 | MLTQFETQSAQVQGLSFHPQQPWIL [xenin-Gln] | – | – | – | – | – | – | – | – | stable in the presence of murine plasma
